Our source for the IC50 and inhibition values is US12448394B2, “Heterocyclic pyrazole derivatives as type III receptor tyrosine kinase inhibitors” (DEVELOPMENT CENTER FOR BIOTECHNOLOGY, priority 2019, dated 2025).

One test deals with T1, PDGFRα kinase (Homo sapiens, UniProt P16234).
T1 construct: purchased SignalChem
Nature of the test: PDGFRα kinase assay (AlphaScreen). The format is biochemical. Particulars: read-out: Ranking of IC50 values, PDGFRα. The method in brief:
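Recombinant PDGFRα (1.5 ng) phosphorylated biotinylated poly(Glu4:Tyr1) with 10 μM ATP in MOPS pH 7.0 with 10 mM MgCl2, 30 min at 30 °C, stopped with EDTA. Product detected by AlphaScreen; IC50 from serial dilutions run in duplicate.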

Test [1] deals with phosphorylation of FLT3 and its down-stream effector STAT5. The test is described as follows: Western blotting of p-FLT3 and p-STAT5 in MV4-11 cells. The format is cell-based. Particulars: Homo sapiens; at 30 nM treatment, 3 hours, FLT3-ITD positive MV4-11 leukemia cells; read-out: inhibition activity against phosphorylation of FLT3 and its down-stream effector STAT5. The method in brief:
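MV4-11 cells held overnight in IMDM with 0.1% FBS, then 3 million cells treated with compound for 3 h. Whole lysates immunoblotted for p-FLT3 (Tyr-591), p-STAT5 (Tyr-694) and actin. Band intensities at 30 nM compared to DMSO control; % inhibition = (1 − relative intensity) × 100.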
Background: Immunoblotting shows a protein as a band on a membrane.

Another test addresses T2, FLT3-D835Y mutant kinase (Homo sapiens, UniProt P36888, D835Y).
T2 construct: purchased SignalChem
T2 sequence (P36888 27-993 D835Y): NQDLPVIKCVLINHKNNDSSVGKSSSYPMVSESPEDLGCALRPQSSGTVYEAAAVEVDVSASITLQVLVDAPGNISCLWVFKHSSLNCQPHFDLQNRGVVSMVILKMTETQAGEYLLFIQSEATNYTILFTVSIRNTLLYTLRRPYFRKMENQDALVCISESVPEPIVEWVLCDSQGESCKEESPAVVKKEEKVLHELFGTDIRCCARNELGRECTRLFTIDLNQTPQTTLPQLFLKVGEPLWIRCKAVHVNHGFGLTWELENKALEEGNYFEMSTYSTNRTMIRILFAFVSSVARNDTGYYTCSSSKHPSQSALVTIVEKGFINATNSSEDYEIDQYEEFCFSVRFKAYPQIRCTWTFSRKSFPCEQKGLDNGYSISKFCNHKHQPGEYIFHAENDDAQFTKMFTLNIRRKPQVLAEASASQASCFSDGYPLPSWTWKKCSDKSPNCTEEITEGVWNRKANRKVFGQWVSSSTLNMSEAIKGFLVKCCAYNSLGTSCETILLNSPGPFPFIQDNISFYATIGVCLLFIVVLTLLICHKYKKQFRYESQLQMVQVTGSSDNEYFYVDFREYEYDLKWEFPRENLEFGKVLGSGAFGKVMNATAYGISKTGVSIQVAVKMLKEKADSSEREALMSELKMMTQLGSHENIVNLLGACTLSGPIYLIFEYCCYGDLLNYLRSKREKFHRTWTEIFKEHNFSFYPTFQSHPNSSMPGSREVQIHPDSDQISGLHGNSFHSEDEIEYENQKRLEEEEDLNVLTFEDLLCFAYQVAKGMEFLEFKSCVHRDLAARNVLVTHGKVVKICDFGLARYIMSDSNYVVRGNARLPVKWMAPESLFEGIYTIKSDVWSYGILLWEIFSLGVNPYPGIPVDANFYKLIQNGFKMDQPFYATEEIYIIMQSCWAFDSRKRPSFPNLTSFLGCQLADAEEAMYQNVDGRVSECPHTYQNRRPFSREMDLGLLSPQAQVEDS
Nature of the test: FLT3-D835Y mutant kinase assay (AlphaScreen). The class given is biochemical. The conditions noted are these: read-out: Ranking of IC50 values, FLT3-D835Y. The method in brief:
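Recombinant FLT3-D835Y (1 ng) phosphorylated biotin-poly(Glu4:Tyr1) at 10 μM ATP, pH 7.0 MOPS buffer with 10 mM MgCl2, for 30 min at 30 °C, stopped with EDTA. Product was read by AlphaScreen. IC50 came from serial dilutions run in duplicate.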
(In Alpha technology, singlet oxygen from a donor bead excites a nearby acceptor bead.)

The structures appear in SMILES notation. Some results are limits rather than exact numbers.

Broadly, the IC50 is the concentration needed to halve the response being measured. A word on the inhibition: it is the percentage by which the read-out fell short of the control.

T1 sequence (P16234 24-1089): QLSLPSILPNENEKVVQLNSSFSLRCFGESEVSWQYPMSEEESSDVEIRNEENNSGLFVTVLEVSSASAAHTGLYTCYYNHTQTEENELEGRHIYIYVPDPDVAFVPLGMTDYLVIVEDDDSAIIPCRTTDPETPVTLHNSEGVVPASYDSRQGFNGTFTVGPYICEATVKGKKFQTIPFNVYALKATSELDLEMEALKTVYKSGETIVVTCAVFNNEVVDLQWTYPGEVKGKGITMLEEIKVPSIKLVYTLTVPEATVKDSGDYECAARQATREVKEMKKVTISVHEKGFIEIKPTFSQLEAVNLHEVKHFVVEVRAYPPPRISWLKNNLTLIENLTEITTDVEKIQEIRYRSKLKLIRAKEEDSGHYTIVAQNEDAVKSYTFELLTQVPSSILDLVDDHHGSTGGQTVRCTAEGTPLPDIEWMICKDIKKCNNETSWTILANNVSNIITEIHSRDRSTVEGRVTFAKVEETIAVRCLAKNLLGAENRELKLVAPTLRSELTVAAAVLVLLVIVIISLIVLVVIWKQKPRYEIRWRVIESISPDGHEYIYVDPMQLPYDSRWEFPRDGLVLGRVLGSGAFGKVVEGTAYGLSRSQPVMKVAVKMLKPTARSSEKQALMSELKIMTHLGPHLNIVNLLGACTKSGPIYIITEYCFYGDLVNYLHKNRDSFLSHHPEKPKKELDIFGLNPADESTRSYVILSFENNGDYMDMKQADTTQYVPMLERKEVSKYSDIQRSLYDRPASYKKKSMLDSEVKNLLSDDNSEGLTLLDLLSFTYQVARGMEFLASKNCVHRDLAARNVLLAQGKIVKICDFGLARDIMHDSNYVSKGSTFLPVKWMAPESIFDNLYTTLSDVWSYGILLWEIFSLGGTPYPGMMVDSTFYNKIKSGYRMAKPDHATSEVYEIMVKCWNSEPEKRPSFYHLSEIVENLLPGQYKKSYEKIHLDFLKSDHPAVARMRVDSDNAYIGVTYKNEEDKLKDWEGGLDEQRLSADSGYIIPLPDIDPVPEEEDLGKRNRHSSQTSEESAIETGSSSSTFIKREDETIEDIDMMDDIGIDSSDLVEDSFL

`Cn1nnc2ccc(-c3n[nH]c4c3Cc3sc(-c5ccc(CN6CCOCC6)cc5)cc3-4)cc21` [Compound 89, 4-(4-(3-(1-methyl-1H-benzo[d][1,2,3]triazol-6-yl)-1,4-dihydrothieno [2′,3′:4,5]cyclopenta [1,2-c]pyrazol-6-yl)benzyl)morpholine]: the IC50 on PDGFRα kinase and at FLT3-D835Y mutant kinase was 1 to 10 nM each time. Further, the inhibition at 0.03 µM in test [1] is more than 50%.

For `Cn1ncc2ccc(-c3n[nH]c4c3Cc3sc(-c5ccc(N)nc5)cc3-4)cc21` [Compound 92, 5-(3-(1-methyl-1H-indazol-6-yl)-1,4-dihydro-thieno[2′,3′:4,5]cyclopenta [1,2-c]pyrazol-6-yl) pyridin-2-amine], the values for the IC50 at PDGFRα kinase and on FLT3-D835Y mutant kinase were 1 to 10 nM and less than 1 nM, respectively. Moreover, the inhibition at 0.03 µM in test [1] is more than 50%.

Turning to `CN(C)Cc1ccc(-c2cc3c(s2)Cc2c(-c4ccc5cnn(C)c5c4)n[nH]c2-3)cc1` [Compound 94, N,N-dimethyl-1-(4-(3-(1-methyl-1H-indazol-6-yl)-1,4-dihydrothieno [2′,3′:4,5]cyclopenta [1,2-c]pyrazol-6-yl)phenyl)methanamine], the half-inhibitory concentration (IC50) at PDGFRα kinase and on FLT3-D835Y mutant kinase was 1 to 10 nM in each case. Also, the inhibition at 0.03 µM in test [1] was more than 50%.
